# Counter-ions that a name gives are not always drawn.
# What was measured:
# SCN1A mRNA [1] = test: Upregulation of SCN1A mRNA in adult primary human keratinocytes (real time PCR); assay type: cell-based; conditions: compound 1 uM, 24-48 h, 18S-normalized vs vehicle (DMSO), average upregulation; for fold induction at 1 µM: Homo sapiens, Keratinocyte, read-out: fold increase in SCN1A mRNA levels, Keratinocytes, Avg
# Experimental: (§1) Transfer of a small molecule into a host cell or organism and determination of its effect upon RNA or protein up-regulation or down regulation can be assessed by several methods well known in the art. For example, SCN1A fibroblasts and/or keratinocytes or other cell types as desired are selected and grown for the specific assays herein. One day before the experiment cells are plated at the density of approximately 4×10^4/well into 24 well plates in Growth Media and incubated at 37° C. and 5% CO2 overnight. Next day, the media in the 24 well plates is changed to fresh Growth Media (1 ml/well) and the cells are dosed with small compounds. Compound stocks are prepared in DMSO at a concentration of 1 mM. At the time of the experiment 1 mM stock solutions are diluted to the concentration of 1 uM in Growth Media. One in 1000 dilution of DMSO is used for the control wells. After 24-48 h incubation at 37° C. and 5% CO2 the media is removed and RNA is extracted from the cells using SV Total RNA Isolation System from Promega (cat # Z3105) following the manufacturers' instructions. Six hundred nanograms of purified total RNA is added to the reverse transcription reaction performed using SuperScript VILO cDNA Synthesis Kit from Invitrogen (cat #11754-250) as described in the manufacturer's protocol. The cDNA from this reverse transcription reaction is used to monitor gene expression by real time PCR using ABI Taqman Gene Expression Mix (cat #4369510) and primers/probes designed by ABI (assays Hs00374696_ml, Hs00897350_ml or Hs00897341_ml for human SCN1A). The following PCR cycle is used: 50° C. for 2 min, 95° C. for 10 min, 40 cycles of (95° C. for 15 seconds, 60° C. for 1 min) using StepOne Plus Real Time PCR system (Applied Biosystems). The assay for 18S is manufactured by ABI (cat #4319413E). Fold change in gene expression after treatment with compounds is calculated based on the difference in 18S-normalized dCt values between compound- and vehicle-treated samples.
# In Example 2 primary human keratinocytes were treated with small compounds at a final concentration of 1 uM.
# Adult primary human keratinocytes from PromoCell (Heidelberg, Germany, cat # C-12003) or LifeLine Cell Technology (Frederick, Md., cat # FC-0025) were grown in Growth Media supplied by the manufacturers at 37° C. and 5% CO2. One day before the experiment cells were plated at the density of approximately 4×10^4/well into 24 well plates in Growth Media and incubated at 37° C. and 5% CO2 overnight. Next day, the media in the 24 well plates was changed to fresh Growth Media (1 ml/well) and the cells were dosed with small compounds. All compounds were available from commercial sources.
# (§2) Compound stocks were prepared in DMSO at a concentration of 1 mM. At the time of the experiment 1 mM stock solutions were diluted to the concentration of 1 uM in Growth Media. One in 1000 dilution of DMSO was used for the control wells. After 24-48 h incubation at 37° C. and 5% CO2 the media was removed and RNA was extracted from the cells using SV Total RNA Isolation System from Promega (cat # Z3105) following the manufacturers' instructions. Six hundred nanograms of purified total RNA was added to the reverse transcription reaction performed using SuperScript VILO cDNA Synthesis Kit from Invitrogen (cat #11754-250) as described in the manufacturer's protocol. The cDNA from this reverse transcription reaction was used to monitor gene expression by real time PCR using ABI Taqman Gene Expression Mix (cat #4369510) and primers/probes designed by ABI (assays Hs00374696_ml, Hs00897350_ml or Hs00897341_ml for human SCN1A). Results obtained using all three assays were very similar (data not shown). The following PCR cycle was used: 50° C. for 2 min, 95° C. for 10 min, 40 cycles of (95° C. for 15 seconds, 60° C. for 1 min) using StepOne Plus Real Time PCR system (Applied Biosystems). The assay for 18S was manufactured by ABI (cat #4319413E). […]
# SCN1A mRNA [2] = test: Upregulation of SCN1A mRNA in primary human skin fibroblasts carrying a Dravet-associated mutation (real time PCR); assay type: cell-based; conditions: compound 1 uM, 24-48 h, 18S-normalized vs vehicle (DMSO), average upregulation; for fold induction at 1 µM: Homo sapiens, Skin fibroblast, read-out: fold increase in SCN1A mRNA levels, SCN1A fibroblasts, Avg
# Experimental: as §1
# In Example 1 primary human skin fibroblasts carrying Dravet-associated SCN1A mutation were treated with small compounds at a final concentration of 1 uM.
# as §2, with “Primary human skin fibroblasts carrying Dravet-associated SCN1A mutation introduced into culture by Dr. N. Kenyon (University of Miami) were grown in Growth Media consisting of a-MEM (Gibco, cat: 12561-056)+10% FBS (Mediatech, cat: 35-015 CV)+1% Antimycotic-Antibiotic (Gibco, cat: 15240-062) at 37° C. and 5% CO2. One day before the experiment cells were plated at the density of approximately 4×10^4/well into 24 well plates in Growth Media and incubated at 37° C. and 5% CO2 overnight. Next day, the media in the 24 well plates was changed to fresh Growth Media (I ml/well) and the cells were dosed with small compounds. All compounds were available from commercial sources. Compound” for “Compound”, “shown).” for “shown). The following PCR cycle was used: 50° C. for 2 min, 95° C. for 10 min, 40 cycles of (95° C. for 15 seconds, 60° C. for 1 min) using StepOne Plus Real Time PCR system (Applied Biosystems). The assay for 18S was manufactured by ABI (cat #4319413E).”
Compound,fold induction at 1 µM (SCN1A mRNA [1]),fold induction at 1 µM (SCN1A mRNA [2]),"fold increase in SCN1A mRNA levels, Keratinocytes, Avg (SCN1A mRNA [1])","fold increase in SCN1A mRNA levels, SCN1A fibroblasts, Avg (SCN1A mRNA [2])"
"O=c1c2ccccc2[se]n1-c1ccccc1 [Ebselen, 2-Phenyl-1,2-benzoselenazol-3-one]",2.67,2.81,–,–
"CC(C)c1ccc2oc3nc(N)c(C(=O)O)cc3c(=O)c2c1 [Amlexanox, 2-amino-7-isopropyl-5-oxo-5H-chromeno[2,3-b]pyridine-3-carboxylic acid]",5.41,2.01,–,–
"CCOC(=O)C1=C(C)NC(C)=C(C(=O)OC)C1c1cccc([N+](=O)[O-])c1 (racemic) [Nitrendipine, (RS)-ethyl methyl 2,6-dimethyl-4-(3-nitrophenyl)-1,4-dihydropyridine-3,5-dicarboxylate]",–,2.13,–,–
"CCN(CC)C(=O)C1(c2ccccc2)CC1CN [Milnacipran, 1R(S),2S(R)[-2-(aminomethyl)-N,N-diethyl-1-phenylcyclopropanecarboxamide hydrochloride]",2.72,4.37,–,–
CCOc1cc(N)c(Cl)cc1C(=O)NCC1CN(Cc2ccc(F)cc2)CCO1 (stereo not shown) [Mosapride],1.47,1.9,–,–
"CC(N=C(NC#N)Nc1ccncc1)C(C)(C)C (stereo not shown) [Pinacidil, N-cyano-N′pyridin-4-yl-N″-(1,2,2-trimethylpropyl)guanidine]",–,3.48,–,–
"C[C@H]1CCC[C@H](O)CCCCCc2cc(O)cc(O)c2C(=O)O1 [Zeranol, (3S,7R)-7,14,16-trihydroxy-3-methyl-3,4,5,6,7,8,9,10,11,12-decahydro-1H-2-benzoxacyclotetradecin-1-one]",4.51,2.6,–,–
"COc1ccc2[nH]c([S+]([O-])Cc3ncc(C)c(OC)c3C)nc2c1 (stereo not shown) [Omeprazole, 6-methoxy-2-((4-methoxy-3,5-dimethylpyridin-2-yl)methylsulfinyl)-1H-benzo[d]imidazole Mg]",2.46,2.22,–,–
"CCc1nn(CCCN2CCN(c3cccc(Cl)c3)CC2)c(=O)n1CCOc1ccccc1 [Nefazadone, 2-[3-[4-(3-chlorophenyl)-1-piperazinyl]propyl]-5-ethyl-2,4-dihydro-4-(2-phenoxyethyl)-3H-1,2,4-triazol-3-one monohydrochloride]",4.53,2.39,–,–
Cc1cccc(Nc2ccncc2S(=O)(=O)NC(=O)NC(C)C)c1 [Torsemide],–,3.7,–,–
"CN1CC(=O)N2[C@H](c3ccc4c(c3)OCO4)c3[nH]c4ccccc4c3C[C@@H]2C1=O [Tadalafil, (6R-trans)-6-(1,3-benzodioxol-S-yl)-2,3,6,7,12,12a-hexahydro-2-methyl-pyrazino[1′,2′:1,6]pyrido[3,4-b]indole-1,4-dione]",2.79,2.73,–,–
"CN1C(=O)CN=C(c2ccccc2)c2cc([N+](=O)[O-])ccc21 [Nimetazepam, 2-methyl-9-nitro-6-phenyl-2,5-diazabicyclo[5.4.0]undeca-5,8,10,12-tetraen-3-one]",2.47,2.03,–,–
"CS(=O)(=O)Nc1ccc(Cc2noc(-c3ccc4[nH]cc(CCN)c4c3)n2)cc1 [L-694,247, Methanesulfonamide,N-[4-[[5-[3-(2-aminoethyl)-1H-indol-5-yl]-1,2,4-oxadiazol-3-yl]methyl]phenyl]]",–,–,1.68 fold,2.20 fold
"CC(=O)N1CCN(c2ccc(OCC3COC(Cn4ccnc4)(c4ccc(Cl)cc4Cl)O3)cc2)CC1 [Ketoconazole, 1-[4-(4-{[(2R,4S)-2-(2,4-Dichlorophenyl)-2-(1H-imidazol-1-ylmethyl)-1,3-dioxolan-4-yl]methoxy}phenyl)piperazin-1-ylethan-1-one]",2.73,2.95,–,–
"Cc1nc2n(c(=O)c1CCN1CCC(c3noc4cc(F)ccc34)CC1)CCCC2 [Risperidone, 3-[2-[4-(6-flouro-1,2-benzisoxazol-3-yl)-1-piperidinyl]-ethyl]-6,7,8,9-tetrahydro-2-methyl-4H-pyrido[,2-a]pyrimidin-4-one]",3.02,3.48,–,–
"COc1ccc(-c2oc3c(CC=C(C)C)c(O[C@@H]4O[C@H](CO)[C@@H](O)[C@H](O)[C@H]4O)cc(O)c3c(=O)c2O[C@@H]2O[C@@H](C)[C@H](O)[C@@H](O)[C@H]2O)cc1 [Icariin, 5-hydroxy-2-(4-methoxyphenyl)-8-(3-methylbut-2-enyl)-7-[(2S,3R,4S,5S,6R)-3,4,5-trihydroxy-6-(hydroxymethyl)oxan-2-yl]oxy-3-[(2S,3R,4R,5R,6S)-3,4,5-trihydroxy-6-methyloxan-2-yl]oxychromen-4-one]",2.29,2.38,–,–
"CN[C@H]1CC[C@@H](c2ccc(Cl)c(Cl)c2)c2ccccc21 [Sertraline, (1S,4S)-4-(3,4-dichlorophenyl)-N-methyl-1,2,3,4-tetrahydronaphthalen-1-amine]",5.18,1.79,–,–
"COC(=O)C1=C(C)NC(C)=C(C(=O)OC2CCCN(Cc3ccccc3)C2)C1c1cccc([N+](=O)[O-])c1 [Benidipine, 5-Omethyl-3O-[(3R)-1-(phenylmethyl)-piperidin-3-yl]2,6-dimethyl-4-(3-nitrophenyl)-1,4-dihydropyridine-3,5-dicarboxylate]",1.69,3.01,–,–
"C[C@]12Cc3c[nH]nc3C[C@@H]1CC[C@@H]1[C@@H]2CC[C@@]2(C)[C@H]1CC[C@]2(C)O [Stanozolol, 17β-Hydroxy-17-methyl-5α-androstano[3,2-c]-pyrazole]",1.76,1.75,–,–
"COc1ccc(CN2CCN(C(c3ccc(F)cc3)c3ccc(F)cc3)CC2)c(OC)c1OC [Lomerizine, 1-[bis(4-fluorophenyl)methyl]-4-[2,3,4-trimethoxyphenylmethyl]Dihydrochloride]",3.47,2.39,–,–

# — patent US10583128B2, “Treatment of diseases related to alpha subunits of sodium channels, voltage-gated (SCNxA) with small molecules” (CuRNA, Inc., priority 2011, dated 2020)
